Data from patent US8501446B2 (Vertex Pharmaceuticals Incorporated, priority 2004, dated 2013).

Tests used:
Assay type in all cases: biochemical
JAK3 = target: T1, JAK3 (Homo sapiens, UniProt P52333); assay: JAK3 inhibition assay (standard radioactive enzyme assay); settings: average Ki if more than one value determined
T1 sequence (P52333 1-1124): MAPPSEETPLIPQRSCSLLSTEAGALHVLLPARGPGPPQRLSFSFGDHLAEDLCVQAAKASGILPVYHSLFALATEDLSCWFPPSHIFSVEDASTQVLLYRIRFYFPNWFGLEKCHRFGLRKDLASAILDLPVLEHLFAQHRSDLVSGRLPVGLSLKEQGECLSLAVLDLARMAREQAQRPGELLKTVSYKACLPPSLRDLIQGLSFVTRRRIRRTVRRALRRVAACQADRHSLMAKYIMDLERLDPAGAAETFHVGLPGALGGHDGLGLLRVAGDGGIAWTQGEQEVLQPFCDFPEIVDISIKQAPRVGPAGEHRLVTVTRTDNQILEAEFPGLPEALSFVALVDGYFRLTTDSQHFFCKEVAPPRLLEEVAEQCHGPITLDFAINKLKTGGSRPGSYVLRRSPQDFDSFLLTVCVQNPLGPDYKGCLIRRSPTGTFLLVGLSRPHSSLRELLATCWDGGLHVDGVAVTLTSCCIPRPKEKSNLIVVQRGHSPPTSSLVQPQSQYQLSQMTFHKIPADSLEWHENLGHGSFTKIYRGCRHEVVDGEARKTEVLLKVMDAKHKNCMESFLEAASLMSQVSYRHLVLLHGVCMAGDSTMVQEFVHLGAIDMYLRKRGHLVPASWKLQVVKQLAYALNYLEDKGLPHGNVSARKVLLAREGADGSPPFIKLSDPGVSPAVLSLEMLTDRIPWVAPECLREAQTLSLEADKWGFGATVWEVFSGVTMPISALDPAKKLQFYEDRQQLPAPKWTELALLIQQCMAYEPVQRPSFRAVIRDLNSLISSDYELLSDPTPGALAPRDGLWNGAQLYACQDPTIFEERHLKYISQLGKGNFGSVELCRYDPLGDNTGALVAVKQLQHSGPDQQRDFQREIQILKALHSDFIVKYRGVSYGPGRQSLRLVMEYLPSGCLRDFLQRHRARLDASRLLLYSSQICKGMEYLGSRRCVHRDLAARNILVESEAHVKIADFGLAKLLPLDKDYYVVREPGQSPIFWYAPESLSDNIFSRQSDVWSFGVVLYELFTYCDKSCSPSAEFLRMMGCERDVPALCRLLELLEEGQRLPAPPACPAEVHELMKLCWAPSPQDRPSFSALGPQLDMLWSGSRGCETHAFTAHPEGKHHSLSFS
Protocol: (§1) Compounds were screened for their ability to inhibit JAK3 using a standard radioactive enzyme assay. 1.5 μL/well of a DMSO stock containing serial dilutions of a compound of the present invention (concentrations ranging from 667 μM to 46 nM) was placed in a 96 well polycarbonate plate. 50 μL per well of kinase buffer (100 mM HEPES (pH 7.4), 10 mM MgCl2, 25 mM NaCl, 1 mM DTT, and 0.01% bovine serum albumin (BSA)) containing 2 μM poly(Glu)4Tyr and 10 μM ATP was also added to the plate. To initiate the reaction, 50 μL kinase buffer containing 2 nM JAK3 enzyme was added. Final ATP concentration was 5 μM [γ-^33P] ATP (200 μCi ^33P ATP/μmol ATP (Perkin Elmer, Cambridge, Mass.). After 20 minutes at room temperature (25° C.), the reaction was stopped by adding 50 μL 20% trichloroacetic acid (TCA)/0.4 mM ATP to each well. The entire content of each well was then transferred to a 96 well glass fiber filter plate using a TomTek Cell Harvester. After washing, 60 μL scintillation fluid was added and ^33P incorporation detected using a Perkin Elmer TopCount. After removing mean background values for all of the data points the data was fit using Prism software to obtain a Ki(app). Inhibition of JAK2 was measured as above except that final poly(Glu)4Tyr concentration was 15 μM and final ATP concentration was 12 μM.

JAK2 = JAK2 (Homo sapiens, UniProt O60674); assay: JAK2 inhibition assay (radioactive enzyme assay, as for JAK3); settings: average Ki if more than one value determined
Protocol: as §1

ROCK I (AA 6-553) = target: T2, ROCK I (AA 6-553) (Homo sapiens, UniProt Q13464); assay: ROCK inhibition assay, standard coupled enzyme system ("Enzyme"); settings: enzyme-linked assay
T2 construct: ROCK I (AA 6-553)
In short: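 ROCK I (AA 6-553) at 45 nM and 30 °C with 45 μM ATP and 200 μM peptide, in 100 mM HEPES pH 7.5, 10 mM MgCl2, 25 mM NaCl, 2 mM DTT, 1.5% DMSO. ADP output read by a PK/LDH coupled system: 2.5 mM PEP, 350 μM NADH, 30 μg/ml PK, 10 μg/ml LDH.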

T2 sequence (Q13464 6-553, species assumed): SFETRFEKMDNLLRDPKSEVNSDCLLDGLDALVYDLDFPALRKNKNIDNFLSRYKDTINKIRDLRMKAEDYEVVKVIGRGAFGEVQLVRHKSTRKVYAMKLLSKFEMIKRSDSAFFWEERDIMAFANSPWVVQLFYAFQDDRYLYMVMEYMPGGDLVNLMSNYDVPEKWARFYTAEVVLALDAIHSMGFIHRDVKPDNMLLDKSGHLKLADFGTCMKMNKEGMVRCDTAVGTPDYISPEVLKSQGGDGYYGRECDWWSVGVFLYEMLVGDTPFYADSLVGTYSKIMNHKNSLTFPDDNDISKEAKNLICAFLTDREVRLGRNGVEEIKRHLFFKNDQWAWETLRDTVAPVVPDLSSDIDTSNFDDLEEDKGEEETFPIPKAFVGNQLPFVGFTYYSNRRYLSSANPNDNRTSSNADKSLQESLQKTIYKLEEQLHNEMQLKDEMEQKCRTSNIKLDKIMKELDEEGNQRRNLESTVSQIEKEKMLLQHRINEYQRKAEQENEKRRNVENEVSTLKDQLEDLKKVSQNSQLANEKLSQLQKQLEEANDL
Sequence of JAK2 (O60674 whole entry, species assumed): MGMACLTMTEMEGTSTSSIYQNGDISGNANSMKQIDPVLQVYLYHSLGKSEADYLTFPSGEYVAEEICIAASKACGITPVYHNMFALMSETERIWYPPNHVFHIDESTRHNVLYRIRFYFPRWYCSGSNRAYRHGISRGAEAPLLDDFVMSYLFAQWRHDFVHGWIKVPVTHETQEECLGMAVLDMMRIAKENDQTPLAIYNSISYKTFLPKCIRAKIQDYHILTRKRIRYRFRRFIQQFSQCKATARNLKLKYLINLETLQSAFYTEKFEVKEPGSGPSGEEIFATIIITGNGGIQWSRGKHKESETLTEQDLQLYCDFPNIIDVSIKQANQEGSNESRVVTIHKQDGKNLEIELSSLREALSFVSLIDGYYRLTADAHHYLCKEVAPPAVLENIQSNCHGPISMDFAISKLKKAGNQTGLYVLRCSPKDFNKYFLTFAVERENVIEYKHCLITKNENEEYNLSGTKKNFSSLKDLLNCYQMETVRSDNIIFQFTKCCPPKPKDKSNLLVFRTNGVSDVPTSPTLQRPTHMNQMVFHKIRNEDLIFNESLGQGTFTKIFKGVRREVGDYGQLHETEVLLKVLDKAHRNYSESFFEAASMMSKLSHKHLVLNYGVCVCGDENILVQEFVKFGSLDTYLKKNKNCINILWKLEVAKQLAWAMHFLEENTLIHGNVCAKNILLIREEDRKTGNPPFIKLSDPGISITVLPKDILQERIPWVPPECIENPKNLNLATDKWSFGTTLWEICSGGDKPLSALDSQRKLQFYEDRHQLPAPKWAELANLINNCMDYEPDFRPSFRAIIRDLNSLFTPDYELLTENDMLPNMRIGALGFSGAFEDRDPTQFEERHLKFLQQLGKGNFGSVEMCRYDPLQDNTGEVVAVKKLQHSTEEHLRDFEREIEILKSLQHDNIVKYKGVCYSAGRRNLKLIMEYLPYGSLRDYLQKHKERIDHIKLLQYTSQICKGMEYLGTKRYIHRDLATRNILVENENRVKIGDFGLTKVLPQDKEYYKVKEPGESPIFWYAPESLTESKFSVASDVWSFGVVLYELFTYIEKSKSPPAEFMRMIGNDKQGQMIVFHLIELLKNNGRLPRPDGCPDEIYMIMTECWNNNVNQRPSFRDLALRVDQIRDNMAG

SMILES | Ki (JAK3) | Ki (JAK2) | Ki (ROCK I (AA 6-553))
O=C(Nc1cccc(-c2c[nH]c3ncc(Cl)cc23)n1)OCc1ccccc1 [Compound 91] | 500 to 5000 nM | 500 to 5000 nM | 500 to 5000 nM
CC(=O)N1[C@H](C)CN(c2cccc(-c3c[nH]c4ncc(OCCN(C)C)cc34)n2)C[C@@H]1C [Compound 94] | 500 to 5000 nM | 500 to 5000 nM | 500 to 5000 nM
O=C(O)c1ccc(-c2c[nH]c3ncc(Cl)cc23)cc1 [Compound 104] | < 500 nM | < 500 nM | 500 to 5000 nM
NC(=O)c1ccc(-c2c[nH]c3ncc(Cl)cc23)cc1 [Compound 105] | < 500 nM | < 500 nM | 500 to 5000 nM
O=C(O)c1ccc(-c2c[nH]c3ncc(Cl)cc23)nc1 [Compound 106] | < 500 nM | < 500 nM | 500 to 5000 nM
NC(=O)c1ccc(-c2c[nH]c3ncc(Cl)cc23)nc1 [Compound 107] | < 500 nM | < 500 nM | 500 to 5000 nM
CC(=O)N1[C@H](C)CN(c2cccc(-c3c[nH]c4ncc(C(=O)NCCN5CCOCC5)cc34)n2)C[C@@H]1C [Compound 108] | < 500 nM | < 500 nM | 500 to 5000 nM
CC(=O)N1[C@H](C)CN(c2cccc(-c3c[nH]c4ncc(C(=O)NCCCN5CCN(C)CC5)cc34)n2)C[C@@H]1C [Compound 109] | < 500 nM | < 500 nM | 500 to 5000 nM
CC(=O)N1[C@H](C)CN(c2cc(-c3nnn[nH]3)cc(-c3c[nH]c4ncc(Cl)cc34)n2)C[C@@H]1C [Compound 111] | < 500 nM | < 500 nM | 500 to 5000 nM
COc1cnc2[nH]cc(-c3cccc(N4CCCN(C(C)=O)CC4)n3)c2c1 [Compound 112] | < 500 nM | < 500 nM | 500 to 5000 nM
CC(=O)N1[C@H](C)CN(c2cccc(-c3c[nH]c4ncc(NC(=O)CN5CCNCC5)cc34)n2)C[C@@H]1C [Compound 115] | < 500 nM | < 500 nM | 500 to 5000 nM
CC(=O)N1[C@H](C)CN(c2cccc(-c3c[nH]c4ncc(NC(=O)CN5CCOCC5)cc34)n2)C[C@@H]1C [Compound 116] | < 500 nM | < 500 nM | 500 to 5000 nM
CC(=O)N1CCCN(c2cccc(-c3c[nH]c4ncc(C(=O)O)cc34)n2)CC1 [Compound 126] | 500 to 5000 nM | > 5000 nM | 500 to 5000 nM
CC(=O)N1[C@H](C)CN(c2cccc(-c3c[nH]c4ncc(NC(=O)N5CCOCC5)cc34)n2)C[C@@H]1C [Compound 127] | < 500 nM | < 500 nM | 500 to 5000 nM
C[C@@H](Nc1cccc(-c2c[nH]c3ncc(Cl)cc23)n1)C1CCCCC1 [Compound 129] | < 500 nM | 500 to 5000 nM | 500 to 5000 nM
Clc1cnc2[nH]cc(-c3cccc(NC4CCc5ccccc54)n3)c2c1 (stereo not shown) [Compound 133] | < 500 nM | < 500 nM | 500 to 5000 nM
CC(C)[C@@H](CO)Nc1cccc(-c2c[nH]c3ncc(Cl)cc23)n1 [Compound 134] | < 500 nM | < 500 nM | 500 to 5000 nM
CC(C)[C@H](CO)Nc1cccc(-c2c[nH]c3ncc(Cl)cc23)n1 [Compound 135] | < 500 nM | < 500 nM | < 500 nM
FC(F)(F)c1cc(NCc2ccccc2)cc(-c2c[nH]c3ncc(Cl)cc23)c1 [Compound 187] | < 500 nM | 500 to 5000 nM | –
O=C(O)c1ccc(-c2c[nH]c3ncc(Cl)cc23)c(F)c1 [Compound 188] | 500 to 5000 nM | > 5000 nM | –
